From publication PMC7504348 (Molecules, 2020)
Where two headings read alike, the source gives them in different places.

Assays:
[1] = target: T1, acetylcolinesterase from electric eel (Type VI) (Electrophorus electricus, UniProt O42275); experiment: biochemical; settings: reported with SD; assayed in triplicate; read-out: AChE IC50
T1 construct: purified acetylcolinesterase from electric eel (Type VI); tissue Type VI; host or cells: electric eel
Description: The assay was performed in 96-well microtiter plates in the same condition for both chalcones and control substance. 25 µL of 100 mM sodium phosphate buffer pH 8, 25 µL of sample and 25 µL acetylcholinesterase solutions containing 0.54 U/mL were mixed in each well of the plate and allowed to incubate for 15 min at 25 °C. Subsequently, 25 µL of a solution of ATCI (15 mM, dissolved in water) and 125 µL of 3 mM DTNB (5,5’-dithio-bis-nitro benzoic acid) were added. The absorbance at 405 nm was recorded during the first 5 min of the reaction. […] Percentages (%) of AChE inhibitions of tested compounds were calculated from the absorbance values as indicated in Equation (1):% I = [(A0E − A0) − (Ac − A0C)]/(A0E − A0)(1) where I is the percent inhibition of acetylcholinesterase; A0E is the absorbance value of the control blank sample with enzyme; A0 is the absorbance value of blank sample; Ac is the absorbance value of the tested sample; A0C is the absorbance value of blank test sample.
The method was as described earlier.

β-secretase (BACE-1) = target: T2, β-secretase (BACE-1) (Homo sapiens, UniProt P56817); experiment: biochemical; settings: reported with SD
T2 construct: purchased Sigma–Aldrich
T2 sequence (P56817 46-501): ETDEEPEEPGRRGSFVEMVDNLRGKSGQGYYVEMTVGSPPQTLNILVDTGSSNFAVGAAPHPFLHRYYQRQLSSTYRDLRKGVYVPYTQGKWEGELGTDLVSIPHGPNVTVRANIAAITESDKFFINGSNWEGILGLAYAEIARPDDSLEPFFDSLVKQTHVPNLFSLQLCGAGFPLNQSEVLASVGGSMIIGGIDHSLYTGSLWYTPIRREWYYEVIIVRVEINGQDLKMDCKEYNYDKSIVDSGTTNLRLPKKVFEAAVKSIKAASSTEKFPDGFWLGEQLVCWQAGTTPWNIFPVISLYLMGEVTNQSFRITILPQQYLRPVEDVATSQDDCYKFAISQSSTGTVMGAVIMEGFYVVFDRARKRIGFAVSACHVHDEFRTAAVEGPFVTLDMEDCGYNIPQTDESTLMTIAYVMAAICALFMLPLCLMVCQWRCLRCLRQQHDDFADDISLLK
Description: β-secretase (BACE-1) Activity Detection Kit (Fluorescent) was purchased from Sigma–Aldrich and used to determine the effect of the synthesized chalcones on β-secretase activity. The assay was carried out according to the manufacturer’s protocol. The enzyme solution (0.3 units/uL, 2 μL) was reacted with the 50 μM of the substrate (7-methoxycumarin- 4-acetyl-(Asn670, Lue671)-amyloid β/A4 precursor protein 770 fragment 667–676-(2,4-dinitrophenyl))Lys-Arg-Arg amide trifluoroacetate salt and sulfated polysaccharide samples (2–5 mg/mL) in a fluorescence assay buffer in different wells. Baseline readings were measure immediately on a Hitachi F-7000 (excitation: 320 nm; emission: 405 nm) fluorescence spectrophotometer and repeated after 2 h incubation at 37 °C. […] The method was as described earlier.

[2] = pIC50 = −logIC50, read-out: BACE-1 pIC50 Observed (converted)

T1 sequence (O42275 24-633): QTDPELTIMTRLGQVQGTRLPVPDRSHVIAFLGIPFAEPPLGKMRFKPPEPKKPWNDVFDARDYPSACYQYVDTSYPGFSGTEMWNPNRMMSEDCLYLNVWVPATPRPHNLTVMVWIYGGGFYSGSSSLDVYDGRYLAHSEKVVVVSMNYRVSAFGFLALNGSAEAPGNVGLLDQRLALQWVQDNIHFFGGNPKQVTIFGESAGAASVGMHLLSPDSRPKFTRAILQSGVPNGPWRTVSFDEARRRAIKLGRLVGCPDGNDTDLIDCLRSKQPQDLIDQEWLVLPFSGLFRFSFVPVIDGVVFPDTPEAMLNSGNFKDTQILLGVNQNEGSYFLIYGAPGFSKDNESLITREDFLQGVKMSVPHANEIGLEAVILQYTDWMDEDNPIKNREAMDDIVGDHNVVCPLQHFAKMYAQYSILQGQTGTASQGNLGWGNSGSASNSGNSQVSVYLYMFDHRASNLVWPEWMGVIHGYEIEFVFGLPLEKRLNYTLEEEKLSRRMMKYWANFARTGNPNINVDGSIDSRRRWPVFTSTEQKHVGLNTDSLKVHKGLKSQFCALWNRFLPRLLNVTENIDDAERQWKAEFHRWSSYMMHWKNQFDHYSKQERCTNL

| SMILES | IC50 [1] | IC50 (β-secretase (BACE-1); [2]) | IC50 (β-secretase (BACE-1); read-out: BACE-1 IC50) |
| --- | --- | --- | --- |
| CN(C)CCCN1c2ccccc2Sc2ccc(C(=O)/C=C/c3ccc(F)cc3)cc21 [AC9, (E)-1-(10-(3-(dimethylamino)propyl)-10H-phenothiazin-2-yl)-3-(4-fluorophenyl)prop-2-en-1-one] | 25.1 ± 0.83 µM | 3.72 µM | 3.72 ± 0.21 µM |
| COc1cc(/C=C/C(=O)c2ccc3c(c2)N(CCCN(C)C)c2ccccc2S3)cc(OC)c1OC [AC4, (E)-1-(10-(3-(dimethylamino)propyl)-10H-phenothiazin-2-yl)-3-(3,4,5-trimethoxyphenyl)prop-2-en-1-one] | 3.63 ± 0.61 µM | 0.155 µM | 0.16 ± 0.03 µM |
| CN(C)CCCN1c2ccccc2Sc2ccc(C(=O)/C=C/c3c(F)cccc3Cl)cc21 [AC7] | 40.7 ± 2.48 µM | 0.447 µM | 0.45 ± 0.04 µM |
| CN(C)CCCN1c2ccccc2Sc2ccc(C(=O)/C=C/c3cccc(Br)c3)cc21 [AC10] | 24.6 ± 1.09 µM | 2 µM | 1.99 ± 0.21 µM |
| CN(C)CCCN1c2ccccc2Sc2ccc(C(=O)/C=C/c3ccc(N(C)C)cc3)cc21 [AC12] | 1.1 ± 0.24 µM | 0.347 µM | 0.35 ± 0.04 µM |
| CN(C)CCCN1c2ccccc2Sc2ccc(C(=O)/C=C/c3ccc(OCc4ccccc4)cc3)cc21 [AC13] | 11.8 ± 0.63 µM | 3.02 µM | 3.03 ± 0.21 µM |
| CN(C)CCCN1c2ccccc2Sc2ccc(C(=O)/C=C/c3ccccc3C(F)(F)F)cc21 [AC11] | 186 ± 4.52 µM | 0.398 µM | 0.4 µM |
| CN(C)CCCN1c2ccccc2Sc2ccc(C(=O)/C=C/c3ccc(Cl)cc3Cl)cc21 [AC6] | 20 ± 1.57 µM | 0.501 µM | 0.5 µM |
| CN(C)CCCN1c2ccccc2Sc2ccc(C(=O)/C=C/c3ccccc3Cl)cc21 [AC8] | 15.8 ± 1.08 µM | 2.95 µM | 2.97 ± 0.05 µM |
| CN(C)CCCN1c2ccccc2Sc2ccc(C(=O)/C=C/c3ccccc3)cc21 [AC1, (E)-1-(10-(3-(dimethylamino)propyl)-10H-phenothiazin-2-yl)-3-phenylprop-2-en-1-one] | 33.9 ± 1.45 µM | 6.31 µM | 6.34 ± 0.46 µM |
| COc1ccc(/C=C/C(=O)c2ccc3c(c2)N(CCCN(C)C)c2ccccc2S3)cc1 [AC3, (E)-1-(10-(3-(dimethylamino)propyl)-10H-phenothiazin-2-yl)-3-(4-methoxyphenyl)prop-2-en-1-one] | 11.5 ± 1.29 µM | 4.47 µM | 4.48 ± 0.4 µM |
| CN(C)CCCN1c2ccccc2Sc2ccc(C(=O)/C=C/c3ccc(Cl)cc3)cc21 [AC5] | 60.3 ± 1.84 µM | 1.23 µM | 1.24 ± 0.12 µM |
| COc1cccc(/C=C/C(=O)c2ccc3c(c2)N(CCCN(C)C)c2ccccc2S3)c1 [AC2, (E)-1-(10-(3-(dimethylamino)propyl)-10H-phenothiazin-2-yl)-3-(3-methoxyphenyl)prop-2-en-1-one] | 30.9 ± 2.1 µM | 3.02 µM | 3 µM |
